A melting point compilation (Tetko et al.; mined from patent text by program, amines drawn as free bases though some values may be those of a salt)

| SMILES | melting point [°C] |
| --- | --- |
| COC(=O)N(C)c1ccc(OCc2nc3ccccc3s2)cc1 | 85 to 87 |
| CC(CC#N)(C(=O)NCC#N)c1ccc(C(=O)Nc2cn3cc(Cl)ccc3n2)cc1 (configuration not stated) | 268 to 269 |
| O=c1cc(-c2cccs2)c2ccccc2[nH]1 | 262 to 264 |
| Cc1cc(C)cc(Sc2cncc3sc(C(N)=O)cc23)c1 | 177 to 179 |
| Cc1nc2c(N[C@@H]3c4ccccc4C[C@H]3O)cc(C(=O)N(C)C)cc2n1C (relative stereo) | 219 to 221 |
| O=C1c2ccccc2C(=O)c2c1ccc1[nH]c(=O)c(=O)[nH]c21 | 245 to 246 |
| CCCN1C(=O)C2(c3ccc([N+](=O)[O-])cc3)CC(c3ccc([N+](=O)[O-])cc3)(C2)C1=O | 237 to 238 |
| COc1cc(-c2ncc(Cl)cc2F)c(F)cc1Cl | 120 to 122 |
| Cc1ccc(F)c(-c2cncc(OC3SCC(O)C(O)C3O)c2)c1 (configuration not stated) | 198 |
| Cc1ncc2n1-c1ccc(Cl)cc1C(c1ccccc1)=[N+]([O-])C2 | 260 to 261 |
| CNC(=O)C(C)(C)N=NC(C)(C)C(=O)NC | 153 |
| Cc1ccc(S(=O)(=O)N(CCN=[N+]=[N-])CCN=[N+]=[N-])cc1 | 47 to 48 |
| COc1cc(C)c(S(C)=O)cc1O (configuration not stated) | 148 to 150 |
| CCC(COC)Nc1nc(C)nc(N2CCc3cc(OC)cc(Cl)c32)c1C#N (configuration not stated) | 182 to 183 |
| CN1C(=O)c2cccnc2NS1(=O)=O | 290 to 292 |
| CC(=O)OCCOC(C)n1cc(F)c(=O)[nH]c1=O (configuration not stated) | 121 to 122 |
| Cc1cccc(-n2nc(C)cc2-c2cc[nH]c(=O)c2)c1 | 182 to 183 |
| CCOC(=O)C1=C(N)NC(N)=C(C(=O)OCC)C1c1ccccc1N=[N+]=[N-] | 250 |
| O=C(O)Cn1c(=O)c(=O)[nH]c2cc([N+](=O)[O-])c(-n3ccc(CN4CCN(C(c5ccccc5)c5ccccc5)CC4)c3)cc21 | > 245 |
| O=C1CC(c2ccc(Oc3ccc(C(F)(F)F)cc3)cc2)Cc2ccccc21 (configuration not stated) | 136 to 137 |
| CCCc1nc2c(N)nc3cc(OCc4ccccc4)ccc3c2n1CC(C)C | 206 to 208 |
| CC(C)NC(=S)Nc1nc2ccc(OC(F)(F)F)cc2s1 | 242 |
| CCCC(=O)COS(=O)(=O)c1c(C)cc(C)c(C)c1C | 49 to 50 |
| Cc1cc(OCCc2nc(-c3ccccc3)oc2C)ccc1OCC(=O)O | 133 |

| SMILES | melting point [°C] |
| --- | --- |
| Nc1nc(CCCCN2CCN(c3ncccn3)CC2)cs1 | 101 to 104 |
| CCCCc1nn(-c2cc(NC(=O)NCCC)ccc2Cl)c(=O)n1Cc1ccc(-c2ccccc2S(=O)(=O)NC(=O)c2ccccc2Cl)cc1 | > 208 |
| CON=C(C(=O)OC)c1cc(Cl)nc(NC=O)n1 | 165 to 172 |
| OC1CSC(Oc2cccnc2-c2ccc(F)cc2)C(O)C1O (configuration not stated) | 110 |
| COCc1c(C=NO)ncc2[nH]c3cccc(Cc4ccc(Cl)cc4)c3c12 | 224 to 228 |
| CC(C)(Cc1cc(F)cc(F)c1)NCC(O)c1cc(OCc2ccccc2)cc2c1OCC(=O)N2 (configuration not stated) | 150 to 158 |
| O=C(O)C(CCc1ccc(Cl)cc1)(Cn1cncn1)c1ccccc1 (configuration not stated) | 188 to 190 |
| CC12CC(F)C3C4CCC(=O)C=C4C=CC3C1CCC2=O (configuration not stated) | 198 |
| CC(C)(C)OC(=O)Nc1ccc(-c2ccc(OCc3ccccc3)nc2)cc1[N+](=O)[O-] | 119 to 122 |
| CC(C)(O)CCNC(=O)c1n[nH]cc1NC(=O)c1ccccn1 | 193 to 194 |
| COc1nc2cc([N+](=O)[O-])c(C)c(C(=O)NCC(=O)OC(C)(C)C)c2nc1OC | 125 to 126 |
| COC(=O)c1cc(OCc2cn(-c3ccc(C(F)(F)F)cn3)nc2C)nn1C | 130 to 131 |
| OCCOCC(O)c1ccc2sccc2c1 (configuration not stated) | 119 to 120 |
| CCC(CC)N(O)C(=O)Nc1ccc(C(=O)c2ccccc2)cc1 | 156 to 157 |
| CC1(O/N=C(\C(=O)O)c2csc(N)n2)CCCC1 | 182 to 183 |
| CCC(=S)OC1(C(=O)COC(=O)C(C)C)CCC2C3CC(C)C4=CC(=O)C=CC4(C)C3C(O)CC21C (configuration not stated) | 151 to 152 |
| CC(C)n1c(=O)[nH]c2c(C(N)=O)nc(-c3cccc(O)c3)nc21 | 338 to 342 |
| C=C(C)C(=O)Oc1ccc(CNS(C)(=O)=O)cc1 | 101 to 102 |
| O=C(O)CCc1cc2nc(C(F)(F)F)ccc2n1S(=O)(=O)c1cccc2cccnc12 | 216 to 217 |
| CN(O)C(=O)Nc1cc(Cl)cc(Cl)c1 | 131 to 132 |
| Cc1cc(N)nc(CCc2nc3cc(Br)cnc3[nH]2)c1 | 216 |
| COc1nc(SCc2ccccc2)ncc1Br | 48 to 49 |
| CN(CCCNc1ncc(Cc2ccccc2Cl)c(=O)[nH]1)c1ccccn1 | 47 to 49 |
| O=C(O)c1cccc(-c2cc(-c3ccc(F)cc3)[nH]n2)c1 | 270 to 272 |

Continued, values first:

| melting point [°C] | SMILES |
| --- | --- |
| 62 to 64 | OCCN1CCC(Cc2ccccc2)CC1 |
| 187 to 189 | COC(=O)CC/C(C)=C/Cc1c(NC=O)c2c(c(C)c1OC)COC2=O |
| 134 to 139 | Cc1nc(N2CCc3ccccc3CC2)c(C#N)c(=O)n1CCN(C)C |
| 151 to 153 | COc1ccc(CN2CCN(CC(=O)N3CC=C(c4cccc(C(F)(F)F)c4)n4ncc(C#N)c43)CC2)cc1 |
| 186 to 188 | Cc1cc(CCC(=O)OC(C)(C)C)cc(-c2nc(=O)c3ccc(Cl)cc3s2)n1 |
| 164 to 166 | O=C(N[C@H]1CCCNC1=O)c1cccc(F)c1 |
| 105 to 107 | Cc1ccccc1C(=O)Nc1ccc(-n2nc(C3CC3)cc2C2CC2)c(F)c1 |
| 202 | O=C(Cc1cccc(Br)c1)Nc1cccc(C(=O)NCCO)c1 |
| 88 to 92 | C=CC(C)c1cc(C)c2c(c1)C(=O)CC2 (configuration not stated) |
| 248 | CC1(C)CC(O)C(C)(C)c2cc(/C=C/c3ccc(C(=O)O)cc3)c(Cn3cccn3)cc21 (configuration not stated) |
| 144 to 146 | Cc1ccc2nc(SCC(=O)O)oc2c1 |
| 95 | Cn1nc2c(N)nc3c(c2c1CCCCNC(=O)N1CCOCC1)CCCC3 |
| 111 to 114 | CCOc1ccc(C2=NN(C3CCCC3)C(=O)[C@H]3CCCC[C@@H]23)cc1OCC (relative stereo) |
| 116 to 120 | CCOc1cc2c(cc1OC)C(c1ccc(C(=O)N3CCOCC3)cc1)=N[C@@H]1CCOC[C@H]21 |
| 84 to 85 | COc1ccccc1N1CCN(CC2=Cc3ccccc3CC2)CC1 |
| 162 to 163 | O=C(O)c1cc2c(n(CC3CCCCC3)c1=O)CCCCCC2 |
| 97 | CCOC(=O)c1cc(C)cc([N+](=O)[O-])c1O |
| 150 to 152 | Cn1nc(C(F)(F)C(F)(F)F)c(C(F)(F)F)c1-n1cc(-c2ccc(Cl)c(C(=O)NC3CC3)c2)nn1 |
| 124 to 125 | COC(=O)c1nn(C2CCCCO2)cc1NC(=O)c1ccccc1 (configuration not stated) |
| 82 to 85 | O=CN1CC2CCCc3c(C(=O)CCCl)ccc1c32 (configuration not stated) |
| 163 to 165 | COCCn1nc2c(N)nc3c(c2c1CC(C)(C)O)CCCC3 |
| 171 to 178 | CON1CCC2(CC1)C(O)=C(c1c(C)cc(C)cc1C)C(=O)N2C |
| 183 | S=C(NC1CCCCC1)N1CCc2[nH]cnc2C1 |
| 118 to 119 | COC(=O)c1c(C)c(OC)cc(O)c1C=O |
